Measurements taken from patent US4327097A, “Novel penicillins” (Toyama Chemical Co., Ltd., priority 1974, dated 1982).
Values after ≈ are worked out from the molar mass of the structure shown. One block for each molecule: values may come before it.

Tests used:
Type in all cases: cell-based
[1] = tested on: Staphylococcus aureus 209p; assay: MIC, plate method, standard strains; settings: Table 3, standard strain, Heart infusion agar pH 7.4; unit assumed
Description: (§1) The minimum inhibitory concentration (MIC) was determined by the plate method disclosed in "Chemotherapy" (Japan), Vol. 16, (1968), pages 98-99. The culture medium used was a Heart infusion agar (pH 7.4). The number of the cells per plate used in the inoculum was 10^4 (10^6 cells/ml).

Escherichia coli NIHJ = assay: MIC, plate method, standard strains; settings: Table 3, standard strain; unit assumed
Description: as §1

Proteus vulgaris 3027 = assay: MIC, plate method, standard strains; settings: Table 3, standard strain; unit assumed
Description: as §1

Pseudomonas aeruginosa = assay: MIC against clinical isolates; settings: unit assumed
Klebsiella pneumoniae [2] = assay: MIC, plate method, standard strains; settings: Table 3, standard strain; unit assumed
Description: as §1

[3] = tested on: Pseudomonas aeruginosa I.F.O.; assay: MIC, plate method, standard strains; settings: Table 3, standard strain; unit assumed
Description: as §1

Escherichia coli = assay: MIC against clinical isolates; settings: Table 5-2, clinical isolate; unit assumed
Shigella flexneri = assay: MIC against clinical isolates; settings: Table 5-5, clinical isolate; unit assumed
Description: as §1
(§2) MIC was determined in the same manner as in the preceding paragraph (1).

Shigella sonnei = assay: MIC against clinical isolates; settings: Table 5-5, clinical isolate; unit assumed
Description: as §1, §2

Staphylococcus aureus = assay: MIC against clinical isolates; settings: Table 5-1, clinical isolate; unit assumed
Klebsiella pneumoniae [4] = assay: MIC against clinical isolates; settings: Table 5-4, clinical isolate; unit assumed

Structure (SMILES): CC1(C)SC2C(NC(=O)C(NC(=O)N3CCN(C4CCCC4)C(=O)C3)c3ccccc3)C(=O)N2C1C(=O)O (single isomer, unassigned) [Compound 32]
- MIC Staphylococcus aureus 209p [1]: < 1.57 µg/mL
- MIC Esche--richin coil NIHJ (Escherichia coli NIHJ): < 1.57 µg/mL

Structure (SMILES): CC(=O)OCCN1CCN(C(=O)NC(C(=O)NC2C(=O)N3C2SC(C)(C)C3C(=O)O)c2ccccc2)C(=O)C1=O (single isomer, unassigned) [Compound 41]
- MIC Staphylococcus aureus 209p [1]: < 1.57 µg/mL
- MIC Proteus vulgaris 3027 (Proteus vulgaris 3027): < 1.57 µg/mL
- MIC Esche--richin coil NIHJ (Escherichia coli NIHJ): < 1.57 µg/mL

Structure (SMILES): C=CCN1CCN(C(=O)NC(C(=O)NC2C(=O)N3C2SC(C)(C)C3C(=O)O)c2ccccc2)C(=O)C1=O (single isomer, unassigned) [Compound 42]
- MIC Proteus vulgaris 3027 (Proteus vulgaris 3027): < 1.57 µg/mL
- MIC Esche--richin coil NIHJ (Escherichia coli NIHJ): < 1.57 µg/mL

Structure (SMILES): CC1(C)SC2C(NC(=O)C(NC(=O)N3CCN(c4ccccc4)C(=O)C3=O)c3ccccc3)C(=O)N2C1C(=O)O (single isomer, unassigned) [Compound 43]
- MIC Staphylococcus aureus 209p [1]: < 1.57 µg/mL
- MIC Proteus vulgaris 3027 (Proteus vulgaris 3027): < 1.57 µg/mL
- MIC Esche--richin coil NIHJ (Escherichia coli NIHJ): < 1.57 µg/mL

- MIC Pseudomonas aeruginosa GN4 (Pseudomonas aeruginosa; Table 6-3, clinical isolate): 50 µg/mL (≈ 89.4 µM)
- MIC Pseudomonas aeruginosa GN 82 (Pseudomonas aeruginosa; Table 6-3, clinical isolate): 50 µg/mL (≈ 89.4 µM)
- MIC Pseudomonas aeruginosa GN 376 (Pseudomonas aeruginosa; Table 6-3, clinical isolate): 50 µg/mL (≈ 89.4 µM)
- MIC Pseudomonas aeruginosa GN 2987 (Pseudomonas aeruginosa; Table 6-3, clinical isolate): 50 µg/mL (≈ 89.4 µM)
Structure (SMILES): CC(=O)OCC1=C(C(=O)O)N2C(=O)C(NC(=O)C(NC(=O)N3CCN(C)C(=O)C3=O)c3ccccc3)C2SC1 (single isomer, unassigned) [Compound No. 60]

- MIC Pseudomonas aeruginosa GN4 (Pseudomonas aeruginosa; Table 6-3, clinical isolate): 100 µg/mL (≈ 158 µM)
- MIC Pseudomonas aeruginosa GN 82 (Pseudomonas aeruginosa; Table 6-3, clinical isolate): 100 µg/mL (≈ 158 µM)
- MIC Pseudomonas aeruginosa GN 376 (Pseudomonas aeruginosa; Table 6-3, clinical isolate): 100 µg/mL (≈ 158 µM)
- MIC Pseudomonas aeruginosa GN 2565 (Pseudomonas aeruginosa; Table 6-3, clinical isolate): 100 µg/mL (≈ 158 µM)
Structure (SMILES): Cc1nnc(SCC2=C(C(=O)O)N3C(=O)C(NC(=O)C(NC(=O)N4CCN(C)C(=O)C4=O)c4ccccc4)C3SC2)s1 (single isomer, unassigned) [Compound No. 62]

Structure (SMILES): CN1CCN(C(=O)NC(C(=O)NC2C(=O)N3C2SC(C)(C)C3C(=O)O)c2ccc(O)cc2)C(=O)C1=O (single isomer, unassigned) [compound 48]
- MIC Staphylococcus aureus 209p [1]: < 0.4 µg/mL
- MIC Proteus vulgaris 3027 (Proteus vulgaris 3027): < 0.4 µg/mL
- MIC Esche--richin coil NIHJ (Escherichia coli NIHJ): < 0.4 µg/mL

- MIC Staphylococcus aureus 209p [1]: < 0.4 µg/mL
Structure (SMILES): CN1CCN(C(=O)N[C@@H](C(=O)N[C@@H]2C(=O)N3[C@@H]2SC(C)(C)[C@@H]3C(=O)OC2OC(=O)c3ccccc32)c2ccccc2)C(=O)C1=O (single isomer, unassigned) [compound 49]

Structure (SMILES): COCOC(=O)C1N2C(=O)C(NC(=O)C(NC(=O)N3CCN(C)C(=O)C3=O)c3ccccc3)C2SC1(C)C (single isomer, unassigned) [compound 50]
- MIC Staphylococcus aureus 209p [1]: < 0.79 µg/mL
- MIC Proteus vulgaris 3027 (Proteus vulgaris 3027): < 0.79 µg/mL
- MIC Esche--richin coil NIHJ (Escherichia coli NIHJ): < 0.79 µg/mL

Structure (SMILES): CCCCCCCCN1CCN(C(=O)NC(C(=O)NC2C(=O)N3C2SC(C)(C)C3C(=O)OCOC)c2ccccc2)C(=O)C1=O (single isomer, unassigned) [compound 51]
- MIC Klebsiella pneumoniae (Klebsiella pneumoniae [2]): < 0.4 µg/mL
- MIC Staphylococcus aureus 209p [1]: < 0.4 µg/mL
- MIC Proteus vulgaris 3027 (Proteus vulgaris 3027): < 0.4 µg/mL
- MIC Esche--richin coil NIHJ (Escherichia coli NIHJ): < 0.4 µg/mL

Structure (SMILES): CN1CCN(C(=O)NC(C(=O)NC2C(=O)N3C2SC(C)(C)C3C(=O)OCCN2CCCCC2)c2ccccc2)C(=O)C1=O (single isomer, unassigned) [compound 53]
- MIC Esche--richin coil NIHJ (Escherichia coli NIHJ): < 0.4 µg/mL

- MIC Pseudomonas aeruginosa I.F.C [3]: 100 µg/mL (≈ 163 µM)
- MIC Proteus vulgaris 3027 (Proteus vulgaris 3027): 3.13 µg/mL (≈ 5.1 µM)
Structure (SMILES): CC1(C)S[C@@H]2[C@H](NC(=O)[C@H](NC(=O)N3CCN(C(=O)c4ccc(Cl)cc4)CC3=O)c3ccccc3)C(=O)N2[C@H]1C(=O)O [Compound 8]

Structure (SMILES): CCCCCCN1CCN(C(=O)N[C@@H](C(=O)N[C@@H]2C(=O)N3[C@@H]2SC(C)(C)[C@@H]3C(=O)O)c2ccccc2)C(=O)C1 [Compound 13]
- MIC Escherichia coli GN 3435 (Escherichia coli): 3.13 µg/mL (≈ 5.59 µM)
- MIC Escherichia coli GN 3452 (Escherichia coli): 3.13 µg/mL (≈ 5.59 µM)
- MIC Escherichia coli GN 3481 (Escherichia coli): 6.25 µg/mL (≈ 11.2 µM)
- MIC Escherichia coli K-1 (Escherichia coli): 3.13 µg/mL (≈ 5.59 µM)
- MIC Escherichia coli K-2 (Escherichia coli): 6.25 µg/mL (≈ 11.2 µM)
- MIC Escherichia coli K-4 (Escherichia coli): 6.25 µg/mL (≈ 11.2 µM)
- MIC Shigella flexneri JS 11215 (Shigella flexneri): 12.5 µg/mL (≈ 22.3 µM)
- MIC Shigella flexneri JS 11839 (Shigella flexneri): 1.57 µg/mL (≈ 2.81 µM)
- MIC Shigella sonnei JS 11232 (Shigella sonnei): 12.5 µg/mL (≈ 22.3 µM)
- MIC Shigella sonnei JS 11755 (Shigella sonnei): 3.13 µg/mL (≈ 5.59 µM)
- MIC Staphylococcus aureus F-1 (Staphylococcus aureus): 12.5 µg/mL (≈ 22.3 µM)
- MIC Staphylococcus aureus F-2 (Staphylococcus aureus): 1.57 µg/mL (≈ 2.81 µM)
- MIC Staphylococcus aureus F-4 (Staphylococcus aureus): 6.25 µg/mL (≈ 11.2 µM)
- MIC Staphylococcus aureus MS 8588 (Staphylococcus aureus): 3.13 µg/mL (≈ 5.59 µM)
- MIC Staphylococcus aureus MS 8596 (Staphylococcus aureus): 3.13 µg/mL (≈ 5.59 µM)
- MIC Staphylococcus aureus MS 8684 (Staphylococcus aureus): 3.13 µg/mL (≈ 5.59 µM)
- MIC Staphylococcus aureus MS 8713 (Staphylococcus aureus): 3.13 µg/mL (≈ 5.59 µM)
- MIC Klebsiella pneumoniae (Klebsiella pneumoniae [2]): < 1.57 µg/mL
- MIC Staphylococcus aureus 209p [1]: < 1.57 µg/mL
- MIC Proteus vulgaris 3027 (Proteus vulgaris 3027): < 1.57 µg/mL
- MIC Esche--richin coil NIHJ (Escherichia coli NIHJ): < 1.57 µg/mL
- MIC Pseudomonas aeruginosa GN 2987 (Pseudomonas aeruginosa; Table 5-3, clinical isolate): 12.5 µg/mL (≈ 22.3 µM)
- MIC Klebsiella pneumoniae GN 917 (Klebsiella pneumoniae [4]): 12.5 µg/mL (≈ 22.3 µM)
- MIC Klebsiella pneumoniae GN 3850 (Klebsiella pneumoniae [4]): 6.25 µg/mL (≈ 11.2 µM)
